According to US7655671B2, “Morphinan derivatives, the quaternary ammonium salts thereof substituted in position 14, method for production and use thereof” (priority 2002, dated 2010):
Structures can show the parent of a compound that is named as a salt.

biological target: T1, μ-opioid receptors (Rattus norvegicus, UniProt P33535); test: Opioid receptor binding studies on rat's brain homogenisates with [3H]DAMGO
T1 construct: from tissue; host or cells: rat brain homogenate
T1 sequence (P33535 whole entry): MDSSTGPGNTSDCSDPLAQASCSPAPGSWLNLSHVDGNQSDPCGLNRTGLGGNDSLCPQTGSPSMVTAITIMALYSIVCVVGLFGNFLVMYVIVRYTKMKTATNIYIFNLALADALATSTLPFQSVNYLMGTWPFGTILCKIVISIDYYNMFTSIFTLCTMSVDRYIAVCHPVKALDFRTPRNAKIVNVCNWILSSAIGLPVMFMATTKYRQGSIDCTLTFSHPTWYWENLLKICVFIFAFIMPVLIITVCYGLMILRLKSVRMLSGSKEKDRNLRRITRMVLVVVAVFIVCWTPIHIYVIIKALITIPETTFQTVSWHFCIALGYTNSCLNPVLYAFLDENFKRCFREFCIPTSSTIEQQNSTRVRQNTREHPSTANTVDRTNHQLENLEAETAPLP

Work on `COc1cccc2c1[C@]13CCN(CC4CC4)[C@H](C2)[C@]1(OC)CCC(=O)C3` [Cyprodime, cyprodime, reference compound] yielded a Ki of 23.7 nM.

test system: not given; test: not given

First: C=CCN1CC[C@]23c4c5ccc(OC)c4O[C@H]2C(=O)CC[C@@]3(OCCCc2ccccc2)C1C5
Second: CCN1CC[C@]23c4c5ccc(OC)c4O[C@H]2C(=O)CC[C@@]3(OCCCc2ccccc2)[C@H]1C5
The melting point of the first is higher: 129 to 130 °C for the first, 95 to 101 °C for the second.

First: COc1ccc2c(c1OC)[C@]13CCN(C)C(C2)[C@]1(OCCCc1ccccc1)CCC(=O)C3
Second: COc1ccc2c(c1OC)[C@]13CCN(C)[C@H](C2)[C@]1(OCc1ccccc1)CCC(=O)C3 (as salt: hydrochloride)
The melting point of the first is lower: 110 to 115 °C for the first, 140 to 145 °C for the second.

Compared with `CCO[C@@]12CCC(=O)[C@@H](C)[C@@]13CCN(C)[C@@H]2Cc1ccc(OC)c(O)c13`, `CCO[C@@]12CCC(=O)[C@@H](C)[C@@]13CCN(C)C2Cc1ccc(OC)c(OC)c13` is higher in melting point: 122 to 129 °C for the first, 135 to 141 °C for the second.

First: COc1ccc2c(c1OC)[C@]13CCN(C)C(C2)[C@]1(O)CCC(=O)[C@H]3C
Second: COc1ccc2c(c1OC)[C@]13CCN(C)[C@H](C2)[C@]1(OCc1ccccc1)CCC(=O)[C@H]3C
The melting point of the first is lower: 122 to 124 °C for the first, 166 to 167 °C for the second.

Compared with `CC[N@@+]1(C)CC[C@]23c4c5ccc(O)c4O[C@H]2C(=O)CC[C@@]3(OCCCc2ccccc2)[C@H]1C5.[I-]`, `COC12CCC(=O)C3Oc4c(O)ccc5c4[C@@]31CC[N@+](C)(CCc1ccccc1)C2C5.[I-]` (stereo partly drawn) is higher in melting point: 171 to 176 °C for the first, 180 to 181 °C for the second.

First: CCCCOC12CCC(=O)C3(Cc4ccccc4)Oc4c(O)ccc5c4[C@@]31CC[N+](C)(C)C2C5.[I-] (stereo partly drawn)
Second: C=CC[N@+]1(C)CC[C@]23c4c5ccc(O)c4OC2(Cc2ccccc2)C(=O)CCC3(OCCCC)C1C5.[I-] (stereo partly drawn)
The melting point of the first is lower: 188 to 195 °C for the first, 200 to 205 °C for the second.

First: CCCCO[C@@]12CCC(=O)[C@@H]3Oc4c(O)ccc5c4[C@@]31CC[N+](C)(C)[C@@H]2C5.[I-]
Second: CC(C)CCO[C@@]12CCC(=O)[C@@H]3Oc4c(O)ccc5c4[C@@]31CCN(CC1CC1)[C@@H]2C5 (as salt: hydrochloride)
The melting point of the first is higher: 180 to 185 °C for the first, 168 to 170 °C for the second.

First: C[N@+]1(CC2CC2)CC[C@]23c4c5ccc(O)c4O[C@H]2C(=O)CC[C@@]3(OCc2ccccc2-c2ccccc2)[C@H]1C5.[I-]
Second: C[N@+]1(CC2CC2)CC[C@]23c4c5ccc(O)c4O[C@H]2C(=O)CC[C@@]3(OCc2ccc(Cl)cc2)[C@H]1C5.[I-]
The melting point of the first is higher: 219 to 221 °C for the first, 214 to 219 °C for the second.

Compared with `Cc1ccccc1CO[C@@]12CCC(=O)[C@@H]3Oc4c(O)ccc5c4[C@@]31CCN(CC1CC1)[C@@H]2C5` (as salt: hydrochloride), `O=C1CC[C@@]2(OCc3ccccc3Cl)[C@H]3Cc4ccc(O)c5c4[C@@]2(CCN3CC2CC2)[C@H]1O5` (as salt: hydrochloride) is lower in melting point: 198 to 200 °C for the first, 165 to 168 °C for the second.

First: CC#COc1ccc2c3c1O[C@H]1C(=O)CC[C@@]4(OCc5cccc(Cl)c5)C(C2)N(C)CC[C@]314 (as salt: hydrochloride)
Second: COc1ccc2c3c1O[C@H]1C(=O)CC[C@@]4(OCCCc5ccccc5)[C@@H](C2)N(CC2CC2)CC[C@]314 (as salt: hydrochloride)
The melting point of the first is higher: 145 to 150 °C for the first, 130 to 133 °C for the second.

Compared with `COc1ccc2c3c1O[C@H]1C(=O)CC[C@@]4(OCCCc5ccccc5)[C@@H](C2)N(CC2CCC2)CC[C@]314` (as salt: hydrochloride), `COc1ccc2c3c1O[C@H]1C(=O)CC[C@@]4(OCCCc5ccccc5)C(C2)N(CC2CCCO2)CC[C@]314` (stereo partly drawn) (as salt: hydrochloride) is lower in melting point: 128 to 133 °C for the first, 121 to 123 °C for the second.

First: CCN1CC[C@]23c4c5ccc(O)c4O[C@H]2C(=O)CC[C@@]3(OCCCc2ccccc2)[C@H]1C5 (as salt: hydrochloride)
Second: O=C1CC[C@@]2(OCCCc3ccccc3)C3Cc4ccc(O)c5c4[C@@]2(CCN3CC2CCCO2)[C@H]1O5 (stereo partly drawn) (as salt: hydrochloride) [Compound 10, 4,5α-epoxy-17-[2-((R,S)-tetrahydrofuran-2-yl)methyl]-3-hydroxy-14β-(3-phenylpropyloxy)morphinan-6-one hydrochloride]
The melting point of the first is higher: 178 to 180 °C for the first, 170 to 172 °C for the second.

First: COc1ccc2c(c1O)[C@]13CCN(C)[C@H](C2)[C@]1(OCc1ccc2ccccc2c1)CCC(=O)C3 (as salt: hydrochloride)
Second: COc1ccc2c(c1OC)[C@]13CCN(C)[C@H](C2)[C@]1(OCc1ccc2ccccc2c1)CCC(=O)C3 (as salt: hydrochloride)
The melting point of the first is higher: 195 to 197 °C for the first, 165 to 170 °C for the second.

First: COc1ccc2c3c1O[C@H]1C(=O)CC[C@@]4(OCCCc5ccccc5)[C@@H](C2)N(CCc2ccccc2)CC[C@]314 (as salt: hydrochloride) [Compound 4, 4,5α-epoxy-3-methoxy-17-(2-phenylethyl)-14β-(3-phenylpropyloxy)morphinan-6-one hydrochloride]
Second: CCCCOc1cccc2c1[C@]13CC[N@@H+](CC4CC4)C(C2)[C@]1(OCCCc1ccccc1)CCC(=O)C3.[Cl-] (stereo in doubt)
The melting point of the first is lower: 128 to 130 °C for the first, 172 to 177 °C for the second.

Molecule `COc1ccc2c3c1O[C@@]1(Cc4ccccc4)C(=O)C=C[C@@]4(OC)[C@@H](C2)N(C)CC[C@]314` (stereo in doubt) (as salt: hydrochloride) has a melting point of 164 to 166 °C.

For `COc1ccc2c(c1O)[C@]13CCN(C)[C@H](C2)[C@]1(OCCCc1ccccc1)CCC(=O)C3`, the melting point was > 258 °C (dec.).
With `O=C1CC[C@@]2(OCc3ccccc3)[C@H]3Cc4ccc(O)c5c4[C@@]2(CCN3CC2CC2)[C@H]1O5` (as salt: hydrobromid) the melting point was > 210 °C (dec.).
In the case of `CCCCO[C@@]12CCC(=O)[C@@H]3Oc4c(O)ccc5c4[C@@]31CCN(CC1CC1)[C@@H]2C5` (as salt: hydrochloride), the melting point is reported as 240 °C (dec.).
With `CCCN1CC[C@]23c4c5ccc(O)c4O[C@H]2C(=O)CC[C@@]3(OCCC(C)C)[C@H]1C5` (as salt: hydrochloride) the melting point was 175 to 185 °C (dec.).
In the case of `COc1ccc2c(c1O)[C@]13CCN(C)[C@H](C2)[C@]1(OCc1ccccc1)CCC(=O)C3` (as salt: hydrochloride), the melting point is reported as > 220 °C (dec.).
With `COc1ccc2c(c1O)[C@]13CCN(C)[C@H](C2)[C@]1(OCCCc1ccccc1)CCC(=O)[C@H]3C` (as salt: hydrochloride) the melting point was > 210 °C (dec.).
In the case of `O=C1CC[C@@]2(OCCCc3ccccc3)[C@H]3Cc4ccc(O)c5c4[C@@]2(CCN3CC2CCC2)[C@H]1O5` (as salt: hydrochloride) [Compound 7, 17-cyclobutylmethyl-4,5α-epoxy-3-hydroxy-14β-(3-phenylpropyloxy)morphinan-6-one hydrochloride], the melting point is reported as > 227 °C (dec.).
In the case of `O=C1CC[C@@]2(OCCCc3ccccc3)[C@H]3Cc4ccc(O)c5c4[C@@]2(CCN3CCc2ccccc2)[C@H]1O5` (as salt: hydrochloride) [Compound 9, 4,5α-epoxy-3-hydroxy-17-(2-phenylethyl)-14β-(3-phenylpropyloxy)morphinan-6-one hydrochloride], the melting point is reported as > 218 °C (dec.).
With `COc1ccc2c(c1O)[C@]13CCN(C)[C@H](C2)[C@]1(O)CCC(=O)[C@H]3C` (stereo in doubt) the melting point was > 185 °C (dec.).
